Patent US10058570B2 (priority 2007, dated 2018)
Where “and” joins values, the source holds several entries; their conditions need not be identical. Equal values may be shown once. Read-outs that look alike come from different tables or passages of the source. Marks after values point to notes of the source that are not given here.

Experiments:
[1] = tested on: acetic acid-induced writhing responses; details: mouse, in vivo
[2] = tested on: lipopolysaccharide-induced septic shock; assay type: in vivo, mouse
[3] = tested on: developing type II collagen arthritis
[4] = tested on: MRMT-1 tumor-induced bone osteolysis; details: rat, in vivo
[5] = tested on: formalin-induced hind paw licking; assay type: in vivo, mouse; details: for Hind paw licking time (Seconds) (Mean ± SEM): IP, mean (X)
[6] = tested on: reaction of host lymphocytes to alloantigen; details: mouse, in vivo, 10 mg/kg
[7] = tested on: LPS-induced neutrophilia in lung tissues; details: mouse, in vivo
[8] = arsenic trioxide study, IP 10 mg/kg
[9] = arsenic trioxide study, IP, QD, 10 mg/kg
[10] = sodium meta arsenite study, oral QD, 0.075 mg/kg

## O=[As][O-].[Na+] [sodium meta arsenite, sodium meta arsenite (NaAsO2)]
[1]
  analgesic effect: no analgesic effect
[1]; po, 10 mg/kg
  analgesic activity: significant analgesic activity
  number of writhing responses (average): 7 writhing events
[2]; mouse, in vivo
  IL-1β secretion: significant inhibition
  IL-6 secretion: inhibition
  protection against LPS-induced septic shock: moderate protection
[2]; mouse, in vivo, po
  secretion of KC: no effect
  secretion of MCP-1: no effect
  secretion of TNF-α: no effect
Adjuvant arthritis; rat, in vivo
  Inhibition of body weight loss from day 0: 2-14%
  Relative liver weights, reduction: 7-29%
  tolerability: well tolerated
Adjuvant arthritis; rat, in vivo, po
  Calculated ED50, ankle diameter AUC: 10.62 mg/kg
  Calculated ED50, ankle measurements (dorsal to ventral): 13.65 mg/kg
  Calculated ED50, final paw weight: 1421 mg/kg
  Calculated ED50, histopathologic bone resorption: 9.243 mg/kg
  Calculated ED50, histopathologic inflammation: 17.25 mg/kg
  inhibition of histopathologic inflammation: 76%
  inhibition of lymphoid atrophy: 29%
  inhibition of splenic inflammation: 32%
Adjuvant arthritis; rat, in vivo, po, 3 mg/kg
  inhibition of ankle diameter increase: Significant inhibition
Adjuvant arthritis; rat, in vivo, po, 10 mg/kg
  Relative spleen weights, reduction toward normal: 50%
  inhibition of ankle diameter AUC increase: 46%
  inhibition of ankle diameter increase: Significant inhibition
  inhibition of ankle measurements (dorsal to ventral): 36%
  inhibition of final paw weight increase due to arthritis: 28%
  inhibition of histopathologic bone resorption: 59%
  inhibition of histopathologic inflammation: 24%
Adjuvant arthritis; rat, in vivo, po, 30 mg/kg
  Mean body weight loss over time: significantly increased
  Relative spleen weights, reduction toward normal: 91%
  inhibition of ankle diameter AUC increase: 83%
  inhibition of ankle diameter increase: Significant inhibition
  inhibition of ankle measurements (dorsal to ventral): 81%
  inhibition of final paw weight increase due to arthritis: 83%
  inhibition of histopathologic bone resorption: 81%
  inhibition of lymphoid atrophy: 39%
  inhibition of splenic inflammation: 89%
  toxicity (based on body weight changes): toxic
[3]; rat, in vivo
  inhibition of body weight loss (due to arthritis): 100%
[3]; rat, in vivo, 1 mg/kg
  Relative thymus weights, reduction as compared to disease controls: 20%
[3]; rat, in vivo, po
  Calculated ED50 value, ankle diameter (AUC): 8.499 mg/kg
  Calculated ED50 value, ankle histopathology: 7.080 mg/kg
  Calculated ED50 value, body weight loss: 1.929 mg/kg
  Calculated ED50 value, final paw weight: 7.116 mg/kg
  Calculated ED50 value, knee histopathology: 7.924 mg/kg
[3]; rat, in vivo, po, 10 mg/kg
  Inhibition of ankle diameter (AUC): 73%
  Inhibition of ankle diameter AUC: 66%
  Inhibition of final paw weight: 83% and 69%
  Relative liver weights, increase above arthritic controls: 14%
  Relative liver weights, increase over disease controls: 17%
  Relative spleen weights, reduction as compared to disease control rats: 10%
  inhibition of ankle diameter: Significant inhibition
  inhibition of ankle histopathology parameters: 85%
  inhibition of body weight loss: 85%
  inhibition of decrease in ankle diameter: Significant inhibition
  inhibition of knee histopathologic parameters: 87%
[4]
  ameliorating tumor-induced osteoclasts and osteolysis: strong positive trend
  improving the various aspects of cancer-induced bone damage (histopathology): positive trend
[5]; mouse, in vivo
  analgesic activity: significant analgesic activity
[6]
  immunosuppressive effect in animals treated with alloantigen: slight immunosuppressive effect
[7]
  KC in lavage fluid: significant reduction
  TNF-α in lavage fluid: significant suppression
  cell counts in lavage fluid: not associated with any significant changes
  monocyte count in lavage fluid: significant decrease
  neutrophil (differential) count in lavage fluid: significant decrease
  secretion of 1L-1β, Il-6 or MCP-1 observed in brachoaveolar lavage fluid: At no concentration
  white blood cell (total) count in lavage fluid: significant decrease

## CN1CC[C@]23c4c5ccc(O)c4O[C@H]2[C@@H](O)C=C[C@H]3[C@H]1C5 [Morphine, morphine, reference compound]
[5]; mouse, in vivo
  analgesic effect: associated with analgesic effect
[5]; mouse, in vivo, po, 30 mg/kg
  analgesic effect: significant analgesic effect

## CC(=O)OCC(=O)[C@@]1(O)[C@H](C)C[C@H]2[C@@H]3CCC4=CC(=O)C=C[C@]4(C)[C@@]3(F)[C@@H](O)C[C@@]21C [Dexamehasone 21-acetate, reference compound]
[2]; PO 3 mg/kg, mortality over 3 days after LPS 30 mg/kg IP
  % Protection: (75) %

## arsenic trioxide (As2O3)
[3]; arsenic trioxide study, 10 mg/kg
  Relative thymus weights: reduced below arthritic controls
[3]; arsenic trioxide study, IP 1 mg/kg
  Relative liver weights, increase above arthritic controls: 6%
[3]; [8]
  Relative liver weights, increase above arthritic controls: 10%
  Relative spleen weights, reduction as compared to disease control rats: 21%
[3]; arsenic trioxide study, IP 10 mg/kg, days 10-17
  inhibition of decrease in ankle diameter: Significant inhibition
[3]; [9]
  Inhibition of ankle diameter AUC: 80%
  Inhibition of final paw weight: 71%
  inhibition of body weight loss: 55%
[5]; 1 mg/kg, 0-5 minutes after formalin
  Hind paw licking time (Seconds) (Mean ± SEM): 74.6 s
[5]; 1 mg/kg, 5-10 minutes after formalin
  Hind paw licking time (Seconds) (Mean ± SEM): 2.6* Seconds
[5]; 1 mg/kg, 10-15 minutes after formalin
  Hind paw licking time (Seconds) (Mean ± SEM): 15.6* Seconds
[5]; 1 mg/kg, 15-20 minutes after formalin
  Hind paw licking time (Seconds) (Mean ± SEM): 40.0 s
[5]; 1 mg/kg, 20-25 minutes after formalin
  Hind paw licking time (Seconds) (Mean ± SEM): 57.1 s
[5]; 1 mg/kg, 25-30 minutes after formalin
  Hind paw licking time (Seconds) (Mean ± SEM): 53.5 s
[5]; 1 mg/kg, 30-35 minutes after formalin
  Hind paw licking time (Seconds) (Mean ± SEM): 30.0 s
[5]; 10 mg/kg, 0-5 minutes after formalin
  Hind paw licking time (Seconds) (Mean ± SEM): 9.0* Seconds
[5]; 10 mg/kg, 5-10 minutes after formalin
  Hind paw licking time (Seconds) (Mean ± SEM): 0.3* Seconds
[5]; 10 mg/kg, 10-15 minutes after formalin
  Hind paw licking time (Seconds) (Mean ± SEM): 0.0* Seconds
[5]; 10 mg/kg, 15-20 minutes after formalin
  Hind paw licking time (Seconds) (Mean ± SEM): 0.0* Seconds
[5]; 10 mg/kg, 20-25 minutes after formalin
  Hind paw licking time (Seconds) (Mean ± SEM): 0.0* Seconds
[5]; 10 mg/kg, 25-30 minutes after formalin
  Hind paw licking time (Seconds) (Mean ± SEM): 0.0* Seconds
[5]; 10 mg/kg, 30-35 minutes after formalin
  Hind paw licking time (Seconds) (Mean ± SEM): 0.0 s
[5]; intraperitoneal, 10 mg/kg, intervals 0-5, 5-10, 10-15, 15-20, 20-25 and 25-30 minutes
  inhibition of the licking response to formalin challenge: significant inhibition
[5]; intraperitoneal, lower dose 1 mg/kg
  response (inhibition of licking) to formalin challenge: limited to the intervals of 5-10 and 10-15 minutes after challenge

## CN(Cc1cnc2nc(N)nc(N)c2n1)c1ccc(C(=O)N[C@@H](CCC(=O)O)C(=O)O)cc1 [MTX, methotrexate, reference compound]
Adjuvant arthritis; PO 0.1 mg/kg
  Inhibition of body weight loss from day zero: 91%
  Relative liver weights, reduction toward normal: 100%
  inhibition of ankle diameter AUC increase: 96%
  inhibition of ankle measurements (dorsal to ventral): 97%
  inhibition of final paw weight increase due to arthritis: 99%
  inhibition of histopathologic bone resorption: 100%
  inhibition of histopathologic inflammation: 99%
  inhibition of lymphoid atrophy: 50%
  inhibition of splenic inflammation: 100%
Adjuvant arthritis; PO 0.1 mg/kg, significant days 8-14
  inhibition of ankle diameter increase: Significant inhibition
Adjuvant arthritis; PO 0.1 mg/kg, significant days 10-14
  Mean body weight decrease over time (due to arthritis): inhibited
Adjuvant arthritis; PO 0.01
  Relative spleen weights, reduction toward normal: 77%
[3]; rat, in vivo, po, 0.075 mg/kg
  Relative spleen weights, reduction as compared to disease control rats: 10%
[3]; sodium meta arsenite study, oral 0.075 mg/kg, days 10-17
  inhibition of ankle diameter: Significant inhibition
[3]; sodium meta arsenite study, oral QD days 0-16, 0.075 mg/kg
  inhibition of body weight loss (due to arthritis): 96%
[3]; [10]
  Inhibition of ankle diameter (AUC): 97%
  Inhibition of final paw weight: 95%
  inhibition of ankle histopathology parameters: 97%
  inhibition of knee histopathologic parameters: 100%
